Measurements as given in publication PMC6445123 (Scientific Reports, 2019).
Numbering of substitutions follows the chain as printed. Values joined by “and” are separate entries in the source; they are usually repeats but may differ in a detail not shown here. Equal values may be shown once.

Assays:
Casp6-WT-LS-SS = target: T1, Casp6-WT-LS-SS (Homo sapiens, UniProt P55212); test: C13 dose-response and global-fit kinetics on Casp6-WT-LS-SS; type: biochemical
T1 construct: obtained by co-expression and purification of LS and SS subunits of WT, L200A or K284A Casp6 from E. coli; His (C); made in house; host or cells: E. coli BL21(DE3)pLysS
T1 sequence (P55212 24-179 limits assumed): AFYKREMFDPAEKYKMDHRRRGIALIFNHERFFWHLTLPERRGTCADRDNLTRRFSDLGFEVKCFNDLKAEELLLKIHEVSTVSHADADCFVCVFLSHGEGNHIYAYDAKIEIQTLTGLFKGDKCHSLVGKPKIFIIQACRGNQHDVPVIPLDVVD
T1 sequence (P55212 194-293 limits assumed): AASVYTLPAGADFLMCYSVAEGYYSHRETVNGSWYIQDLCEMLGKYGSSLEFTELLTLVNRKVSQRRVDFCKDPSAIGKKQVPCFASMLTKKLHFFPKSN
Source text: (§1) Figure 4 Compounds S10G and C13 inhibit Casp6 through a noncompetitive mode of inhibition. (a) Michaelis-Menten kinetic plots of Casp6 enzymatic activity in presence of 1% DMSO or increasing doses S10G (top) and C13 (bottom). Data points represent mean ± SD of three independent experiments. (b) Lineweaver-Burk plots of Casp6 inhibition with S10G (top) and C13 (bottom). Red circle indicates the point where lines converge. (c) The relationship between the slopes of lines in Lineweaver-Burk plot analyses in panel (b) and inhibitor concentration. (d) Plots of IC50 values for S10G (top) and C13 (bottom) with varying concentrations of Ac-VEID-AFC substrate. Data points represent mean ± SD from three independent experiments for each substrate concentration. (e) Binding model of C13 into CASP6 putative allosteric site, derived from molecular docking. Left: C13 (green sticks) occupies the putative allosteric site (white surface and lines; Ala-mutated residues L200 and K284 shown as purple sticks). Right: predicted interactions with Casp6 allosteric pocket residues (pink balls polar, circled blue or red for basic and acidic, respectively. Green balls = hydrophobic. Dotted-arrow: blue and green for backbone and sidechain hydrogen-bond interactions, respectively. Blue shade = solvent exposed area). […] Data points on the graph represent the mean ± SD, and calculated Ki values represent mean ± standard error (SE) from three independent experiments. […]
(§2) Compounds, S10G (2.5 µM, 4.2 µM, 10 µM), and C13 (5 µM, 14 µM, 50 µM), were added to 20 nM active site titrated Casp6 and enzyme activity was measured with eight different Ac-VEID-AFC substrate concentrations (5.0 μM–200 μM) using fluorescence-based Casp6 activity assay as above. The apparent KM and Vmax values were determined through nonlinear regression analysis of Michaelis-Menten plots (v vs. [S]) using GraphPad Prism 5. The inhibition mode was determined from the pattern of converging Lineweaver-Burk plots (1/v vs. 1/[S])[54]. […]

Casp6-K284A [1] = target: T2, Casp6-K284A (Homo sapiens, UniProt P55212, K284A); test: C13 dose-response, fluorescence-based activity assay on Casp6-K284A; type: biochemical; conditions: Casp6-K284A; read-out: IC50 of C13 for Casp6-K284A (Fig. 4f)
T2 construct: it only partially self-cleaved at the TEVD193 site generating ΔCasp6, LS-L and SS fragments; His (C); made in house; host or cells: E. coli BL21(DE3)pLysS
T2 sequence (P55212 24-193): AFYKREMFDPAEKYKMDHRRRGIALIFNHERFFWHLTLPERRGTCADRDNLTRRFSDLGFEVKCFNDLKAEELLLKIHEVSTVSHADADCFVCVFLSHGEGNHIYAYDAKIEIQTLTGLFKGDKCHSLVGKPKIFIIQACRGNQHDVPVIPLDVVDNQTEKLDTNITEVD
T2 sequence (P55212 194-293 K284A): T1 sequence (P55212 194-293 limits assumed) with K91A
Source text: as §1, with “sticks).” for “sticks). Right: predicted interactions with Casp6 allosteric pocket residues (pink balls polar, circled blue or red for basic and acidic, respectively. Green balls = hydrophobic. Dotted-arrow: blue and green for backbone and sidechain hydrogen-bond interactions, respectively. Blue shade = solvent exposed area).”

Casp6-K284A [2] = test: as above; type: biochemical, human
Source text: as §1, with “sticks).” for “sticks). Right: predicted interactions with Casp6 allosteric pocket residues (pink balls polar, circled blue or red for basic and acidic, respectively. Green balls = hydrophobic. Dotted-arrow: blue and green for backbone and sidechain hydrogen-bond interactions, respectively. Blue shade = solvent exposed area).”

Casp6-K284A-LS-SS = target: T3, Casp6-K284A-LS-SS (Homo sapiens, UniProt P55212, K284A); test: C13 dose-response and global-fit kinetics on Casp6-K284A-LS-SS; type: biochemical
T3 construct: obtained by co-expression and purification of LS and SS subunits of WT, L200A or K284A Casp6 from E. coli; His (C); made in house; host or cells: E. coli BL21(DE3)pLysS
T3 sequence (P55212 24-179 limits assumed): T1 sequence (P55212 24-179 limits assumed)
T3 sequence (P55212 194-293 K284A limits assumed): T1 sequence (P55212 194-293 limits assumed) with K91A
Source text: Figure 4 Compounds S10G and C13 inhibit Casp6 through a noncompetitive mode of inhibition. (a) Michaelis-Menten kinetic plots of Casp6 enzymatic activity in presence of 1% DMSO or increasing doses S10G (top) and C13 (bottom). Data points represent mean ± SD of three independent experiments. (b) Lineweaver-Burk plots of Casp6 inhibition with S10G (top) and C13 (bottom). Red circle indicates the point where lines converge. (c) The relationship between the slopes of lines in Lineweaver-Burk plot analyses in panel (b) and inhibitor concentration. (d) Plots of IC50 values for S10G (top) and C13 (bottom) with varying concentrations of Ac-VEID-AFC substrate. Data points represent mean ± SD from three independent experiments for each substrate concentration. (e) Binding model of C13 into CASP6 putative allosteric site, derived from molecular docking. Left: C13 (green sticks) occupies the putative allosteric site (white surface and lines; Ala-mutated residues L200 and K284 shown as purple sticks). Right: predicted interactions with Casp6 allosteric pocket residues (pink balls polar, circled blue or red for basic and acidic, respectively. Green balls = hydrophobic. Dotted-arrow: blue and green for backbone and sidechain hydrogen-bond interactions, respectively. Blue shade = solvent exposed area). Dose-response curves of C13 for Casp6-WT and Casp6-K284A (f), and copurified LS and SS of Casp6-WT-LS-SS, Casp6-L200A-LS-SS, and Casp6-K284A-LS-SS (g). Data represent mean ± SD from at least three independent experiments. (h) Global fit of kinetics data to a noncompetitive (mixed) inhibition model for Casp6-WT-LS-SS (left panel, R^2 = 0.9635), Casp6-L200A-LS-SS (middle panel, R^2 = 0.9699), and Casp6-K284A-LS-SS (right panel, R^2 = 0.9794) in the presence of 0–50 µM C13. Data points on the graph represent the mean ± SD, and calculated Ki values represent mean ± standard error (SE) from three independent experiments.
To determine the importance of C13 interactions with L200 and K284 for C13 binding in the Casp6 allosteric pocket, we have generated Casp6-L200A and Casp6-K284A mutants and investigated inhibition with C13. In contrast to Casp6-WT, purified Casp6-L200A and Casp6-K284A underwent poor self-processing when overexpressed in E. coli from a construct encoding a full-length Casp6 (Fig. S5). Casp6-L200A partially self-processed at the TETD23 site generating full-length Casp6 and Casp6 without a prodomain (ΔCasp6). Casp6-K284A underwent complete processing at the TETD23 site but, in contrast to Casp6-WT, it only partially self-cleaved at the TEVD193 site generating ΔCasp6, LS-L and SS fragments (Fig. S5). […] Fully processed forms of Casp6-WT-LS-SS, Casp6-L200A-LS-SS, and Casp6-K284A-LS-SS were obtained by co-expression and purification of LS and SS subunits of WT, L200A or K284A Casp6 from E. coli (Fig. S5). […]
as §2

[3] = Ac-VEID-AFC hydrolysis, increasing substrate and C13 concentrations
[4] = global fit to noncompetitive (mixed) model, 0–50 µM C13, mean ± SE

inhibition model (best global fit), Casp6-WT-LS-SS (Casp6-WT-LS-SS; [3]): noncompetitive (mixed) model inhibition
IC50 (Casp6-WT-LS-SS; copurified LS and SS, read-out: IC50 of C13 for Casp6-WT-LS-SS (Fig. 4g)): 31.8 ± 6.7 µM
Ki (Casp6-WT-LS-SS; [4]): 7.45 µM and 7.5 µM
IC50 (Casp6-K284A [1]): 46.7 ± 18.5 µM
fold higher IC50 for Casp6-K284A than Casp6-WT (Casp6-K284A [2]): ~ 2.7 fold
fold higher IC50 for Casp6-K284A-LS-SS compared to Casp6-WT-LS-SS (Casp6-K284A-LS-SS): 1.5 fold
fold higher Ki for Casp6-K284A-LS-SS compared to Casp6-WT-LS-SS (Casp6-K284A-LS-SS): 1.6 fold
inhibition model (best global fit), Casp6-K284A-LS-SS (Casp6-K284A-LS-SS; [3]): noncompetitive (mixed) model inhibition
IC50 (Casp6-K284A-LS-SS; copurified LS and SS, read-out: IC50 of C13 for Casp6-K284A-LS-SS (Fig. 4g)): 47.8 ± 6 µM
Ki (Casp6-K284A-LS-SS; [4]): 11.8 µM
Structure (SMILES): COC(=O)c1cc(CNC(=O)C2Cc3ccccc3O2)cc(NC(=O)c2ccco2)c1 (stereo not shown) [Compound C13]
